This is an account of results in ChEMBL document CHEMBL5634090, “Design of phenothiazine-based cationic amphiphilic derivatives incorporating arginine residues: Potential membrane-active broad-spectrum antimicrobials combating pathogenic bacteria in vitro and in vivo” (Eur J Med Chem, 2023).

Molecules are shown by their SMILES.

For this test, the system named is Staphylococcus aureus. Kind of test: Antibiofilm activity against 24 hrs preformed biofilm in Staphylococcus aureus ATCC 29213 assessed as reduction in biofilm viability at […] ug/ml relative to control. Type of test: functional. The following applies: dose […] microg/ml; 1.56 ug/mL.

As for `CCCCCCCN1c2ccccc2Sc2ccc(OCC(=O)N[C@@H](CCCNC(=N)N)C(=O)N[C@@H](CCCNC(=N)N)C(N)=O)cc21`, the Activity came to 62.14%.
